The text below walks through data of patent US5486532A, “Benzospiroalkenes” (Adir et Compagnie, priority 1993, dated 1996).

The term ED50 denotes the midpoint of the dose-response relation. What is called EC50 is the concentration needed to bring the measured effect to its halfway point.

Experiment [1] deals with loss of the righting reflex in rats. Nature of the experiment: Test of loss of the righting reflex in rats, induction (agonistic effect). In kind it is in vivo, male Wistar rats. The conditions noted are these: for ED50: Rattus norvegicus, sc, 0.5 h, read-out: Induction of the loss of righting reflex ED50; for induction of a loss of the reorienting reflex (in words): rats. The method, then:
(§1) Animals and environment The animals used are male Wistar rats (IFFA CREDO). They weigh between 200 and 250 g at the time of the experiment. The rats live in an animal house, in cages, four to a cage, with free access to food and drinking water, for one week before being studied. 24 hours before the experiment, the rats are deprived of food. The rats are transferred into the laboratory a few hours before the experiment. The animal house and the laboratory are climatically controlled at a temperature of 21 1° C. and a hygrometry of 55 5%. The lighting cycle is 12 h/12 h with the light switched on from 7.0 a.m. to 7.0 p.m. The rats are only experimented on once.
(§2) The compounds are injected subcutaneously into the rats which are placed in individual cages. 30 minutes after the injection the effect of these products on the fighting reflex is observed and a score is attributed. Immediately after, the rats receive an intraperitoneal injection of xylazine at a dose of 40 mg/kg. 30 minutes after the injection of xylazine (=60 minutes after the injection of the compounds to be tested), a new righting reflex score is attributed. In order to evaluate the righting reflex, the rats are placed gently on their backs and then released. A score of 0 is attributed to an immediate and complete righting, a score of 1 to a righting without recovery of a normal position, a score of 2 to a righting attempt but in which the rat remains stretched out on its back and a score of 3 to a complete loss of the reorienting reflex.
In order to evaluate the effect of the compounds tested on the loss of the righting reflex, a score of 1 or more is considered as an agonistic effect. The percentage of animals which have a score of 1 or more is calculated per dose, as is the ED50 (=dose at which 50% of the animals show an agonistic effect).
(§3) The products are dissolved in distilled water, or distilled water with a few drops of lactic acid in the case of solubilization difficulties. The pH of the solutions is then brought to 5 using sodium hydroxide solution. All the products are administered in a volume of 10 ml/kg.

In experiment [2] the test system is loss of righting reflex induced by xylazine in rats. Nature of the experiment: Antagonism of the loss of righting reflex induced by xylazine in rats. Format: in vivo, male Wistar rats. The conditions noted are these: Rattus norvegicus, sc, 1 h, read-out: Antagonism of the loss of righting reflex induced by xylazine ED50. The protocol:
as §1, §2
In order to evaluate the effect of the compounds tested on the loss of the fighting reflex induced by xylazine, a score of 2 or less is considered as an antagonistic effect. The percentage of animals which have a score of 2 or less is calculated per dose, as is the ED50 (=dose at which 50% of the animals show an antagonistic effect). The ED50 are calculated according to Litchfield and Wilcoxon.
as §3

Experiment [3] concerns synthetic activity of noradrenaline in rat hippocampus. Kind of experiment: Effect of α2-adrenergic ligands on the synthetic activity of noradrenaline in rat hippocampus (L-DOPA accumulation). Conditions: 60 minutes, n = 4. In kind it is in vivo, male Wistar rats. The protocol:
200-220 g male Wistar rats Iffa Credo, Illskischen, France) are individually installed in cages with free access to food and drinking water. The laboratory temperature is 21 1° C. and the percent humidity is 60 5%. The day/night cycle is 12 hours (light switched on in the morning at 7.30).
The effects of the molecules on the rate of regeneration of noradrenaline is determined 60 minutes after their administration via the subcutaneous route. […] The animals are then decapitated, their brain is removed and the hippocampus is dissected. The hippocampus is subsequently homogenized in 500 1 of 0.1M HClO4 containing 0.5% of Na2 S2 O5 and 0.5% of disodium EDTA and centrifuged at 15000 g for 15 minutes at 4° C. In order to measure the amounts of L-dihydroxyphenylalanine (L-DOPA), the precursor of noradrenaline, present, the supernatants are diluted 20 times in the chromatography mobile phase and 100 1 are analyzed by high performance liquid chromatography with electrochemical detection (Waters M460 detector, potential of the working electrode:850 mV). The column (Hypersil ODS 5 m, C18, 150 4.6 mm, Spectra Physics) is thermostatted at 25° C. […] The flow rate is 1 ml/min. The amounts of L-DOPA are determined relative to an external calibration and are compared with the amount of protein present in the hippocampi. The proteins are quantified according to the method of Smith et at. […] The average amount of L-DOPA analyzed in the animals treated by the solvent is considered as the control value (100%). The amounts analyzed in the animals treated by the molecules are then expressed as a percentage relative to this control value.
Statistics The data obtained for the control animals and the treated animals are compared with a variance analysis (ANOVA), followed by a Dunnett test. The significance limit is set at p<0.05. The data are expressed as a mean standard deviation.
Compounds The injection are made subcutaneously in a volume of 1.0 ml/kg. The substances are dissolved in sterile water with, if necessary, a few drops of lactic acid and then readjusted to a pH which is as close as possible to neutrality with sodium hydroxide. […] The doses are expressed relative to their weight of free base.

The test system of a further experiment is dog femoral arteries. Nature of the experiment: Contraction of isolated dog femoral arteries. The conditions noted are these: Canis lupus familiaris. The method, then: (§4) The technique used is based on that described by Fowler et al. (J. Pharmacol. Exp. Ther., 229, 712-718, 1984). Male or female mongrel dogs of approximately 15-25 kg were used as organ sources. The animals are anesthetized with pentobarbital (30 mg/kg intravenously). The legs are incized and the blood vessels removed. They are placed in Krebs-Ringer liquid (118 mM NaCl; 25 mM NaHCO3; 10 mM Glucose; 4.7 mM KCl; 1.25 mM CaCl2; 1.19 mM MgSO4; 1.14 mM KH2 PO4) at room temperature and under a sparge of carbogen (95% O2, 5% CO2). These blood vessels are then carefully freed of their fat and then cut into rings 2 mm wide and mounted under a base tension of 4 g (femoral arteries) or 1 g (saphena veins) in tanks thermostated at 37° C. containing Krebs-Ringer liquid and constantly sparged with carbogen. A lower hook constitutes the fixed point, whereas the upper hook is connected to an isometric force sensor. The variations in tension are digitized, stored on disk and processed by an information technology system. After mounting, the organs are left to rest for 90 minutes, with rinses being carried out every 30 min. After readjustment of the base tension, a contraction is induced by a single dose of KCl (100 mM). After stabilization, washing and returning to the base line, a contraction is provoqued by a single dose of phenylephrine (submaximal concentration) in order to regulate the following contractions. After washing and returning to the baseline, an effect/concentration curve is produced by addition of cumulative doses of agonist (the space between the doses is a semi-log). This experiment makes it possible to calculate the 50% effective concentration (EC50) in the following way: the tension values are first of all converted to percentages relative to the maximum effect induced by 100 mM of KCl. This EC50 is determined by non-linear regression by the SIMPLEX method (M. S. Caceci, Byte, 340-362, 1984), calculated according to the mass action law model of L. Michaelis and M. L. Menten (Biochem. Zeitschrift, 49, 333-369, 1913).
(§5) E=(Emax*C^n)(EC^n +C^n) with E=effect; Emax=maximum effect; C=concentration; EC=EC50; n=Hill number
(§6) The products of the invention contract dog arteries and veins. The maximum for these contractions approaches that obtained with KCl.

The next experiment deals with saphena veins. Kind of experiment: Contraction of isolated dog saphena veins. Conditions: Canis lupus familiaris. The method, then: as §4, §5, §6
Setting [4] is: s.c., 30 minutes after injection, score of 1 or more.
Setting [5] is: s.c., 60 minutes after injection, xylazine 40 mg/kg i.p., score of 2 or less.
[6] abbreviates: 30 minutes after xylazine 40 mg/kg i.p., distilled water pretreatment, N=10.

Counter-ions that a name gives are not always drawn. Like-named read-outs stand apart in the source and are kept apart here.

In the case of `Cc1ccc2c(c1C)CC1(CC2)COC(N)=N1` (stereo not shown) [Example 11, Spiro[(1-oxa-2-amino-3-azacyciopent-2-ene)-4:2'-(7-8'-dimethyl-1', 2',3',4'-tetrahydronaphthalene)]hydrochloride], the figures for the ED50 in experiment [1] (setting [4]) and in experiment [2] (setting [5]) were 1.14 mg/kg and more than 2.5 mg/kg, respectively. Besides, the “induction of a loss of the reorienting reflex (in words)” value (shortened to “induction of a loss … (in words)”) in experiment [1] is reported as “behave as agonists by inducing a loss of the reorienting reflex”.
For the molecule `NC1=NC2(CCc3cccc(Cl)c3C2)CO1` (stereo not shown) [Example 9, Spiro[(1-oxa-2-amino-3-azacyclopent-2-ene)-4:2'-(8'-chloro-1', 2',3',4'-tetrahydronaphthalene)]hydrochloride], the “Accumulation of L-DOPA” value stood at 51 ± 7 Control percentages in experiment [3] (dose 0.01 mg/kg s.c.), 50 ± 7 Control percentages in experiment [3] (dose 0.04 mg/kg s.c.), 44 ± 2 Control percentages in experiment [3] (dose 0.16 mg/kg s.c.) and 34 ± 2 Control percentages in experiment [3] (dose 0.63 mg/kg s.c.). Besides, the values for the ED50 in experiment [1] (setting [4]) and in experiment [2] (setting [5]) were 0.17 mg/kg and more than 0.63 mg/kg, respectively. Moreover, in experiment [1], the “induction of a loss … (in words)” value is “behave as agonists by inducing a loss of the reorienting reflex”.
In the case of `NC1=NC2(CCc3cccc(Cl)c3C2)CO1` (single isomer, unassigned) [Example 13, Spiro[(1-oxa-2-amino-3-azacyclopent-2-ene)-4:2'-(8'-chloro-1',2', 3',4'-tetrahydronaphthalene)]hydrochloride, βisomer], the ED50 was 0.15 mg/kg in experiment [1] (setting [4]) and more than 0.63 mg/kg in experiment [2] (setting [5]). For the same molecule, the “induction of a loss … (in words)” value in experiment [1] is recorded as “behave as agonists by inducing a loss of the reorienting reflex”.
Take `Cc1cccc(C)c1N=C1NCCCS1` [XYLAZINE, xylazine]: in experiment [1] (setting [6]), the “control rats that had lost the righting reflex (in words)” value is reported as “all the control rats (N=10) had lost the fighting reflex” and the “righting reflex score, mean±SD” value is given as 3±0. In experiment [1], the ED50 was determined as 6.1 mg/kg and the “induction of a loss … (in words)” value was “behave as agonists by inducing a loss of the reorienting reflex”.
For `Brc1c(NC2=NCCN2)ccc2nccnc12` [UK 14,304, reference compound], the “Accumulation of L-DOPA” value in experiment [3] (dose 0.01 mg/kg s.c.) came out at 98 ± 13 Control percentages; in experiment [3] (dose 0.04 mg/kg s.c.), 70 ± 2 Control percentages; in experiment [3] (dose 0.16 mg/kg s.c.), 40 ± 3 Control percentages; in experiment [3] (dose 0.63 mg/kg s.c.), 48 ± 7 Control percentages. The figures for the ED50 in experiment [1] and in experiment [2] were 0.24 mg/kg and more than 10 mg/kg, respectively. Also, the “induction of a loss … (in words)” value in experiment [1] is “behave as agonists by inducing a loss of the reorienting reflex”.
For `COc1cccc2c1CC1(CC2)CNC=N1` (stereo not shown) [Example 3, Spiro[(1,3-diazacyclopent-1-ene)-5:2'-(8'-methoxy-1',2',3', 4'-tetrahydronaphthalene)]fumarate], the EC50 with dog femoral arteries (dog femoral artery rings, cumulative doses) is 3000 nM; in the experiment with saphena veins (dog saphena vein rings, cumulative doses), 400 nM. The Emax with dog femoral arteries (maximum contraction relative to 100 mM KCl, dog femoral artery, read-out: ARTERY Max) turned out to be 94%; in the experiment on saphena veins (maximum contraction relative to 100 mM KCl, dog saphena vein, read-out: VEIN Max) it was 100%.
For the molecule `c1ccc2c(c1)OCC(C1=NCCN1)O2` (stereo not shown) [IDAZOXAN, idazoxan], the ED50 is more than 10 mg/kg in experiment [1] (setting [4]) and 0.24 mg/kg in experiment [2] (setting [5]). Further, the “induction of a loss … (in words)” value in experiment [1] is “inactiv”.
